The values that follow are results of earlier work, collected in patent US7183291B2 (Council of Scientific and Industrial Research, priority 1999, dated 2007).

Series [1] has as its system P. cynomolgi B. infection. The conditions noted are these: 3.16 mg/kg×3 doses; monkeys; cited from earlier work.
Series [2] has as its system P. cynomolgi B. infection. To be noted: 1 mg/kg×7 days; cited from earlier work.
The subject of series [3] is rodent malaria. To be noted: in vivo; cited from earlier work.
In series [4] the test system is rodent malaria. To be noted: in vivo; cited from earlier work. The source holds these as a separate data set.
For the next series, the system named is erythrocytes. The conditions noted are these: cited from earlier work.
Series [5] deals with rodent malaria. To be noted: in vivo; cited from earlier work. This is another data set of the same source.
Series [6] relates to rodent malaria. To be noted: given directly to the insect; cited from earlier work.

As to `COc1cc(NC(C)CCCNC2=C(C(C)=O)CCO2)c2ncccc2c1` (stereo not drawn) [N^1-(3-acetyl-4,5-dihydro-2-furanyl)-N^4-(6-methoxy-8-quinolinyl)-1,4-pentanediamine], the causal prophylactic activity entry in series [1] was “causal prophylactic activity”. Besides, the “anti-relapse (radical curative) activity” value in series [2] was “exerts anti-relapse (radical curative) activity”.
For the compound `COc1cc(NC(C)CCCN)c2ncccc2c1O` (stereo not drawn) [formula (3), 5-hydroxy-6-methoxy-8-(4-amino-1-methylbutylamino) quinoline], the blood schizontocidal activity entry in the series with rodent malaria [3] is “highly active”. Further, in the series with rodent malaria [4], the gametocytocidal activity entry is “inactive”. Moreover, the “oxidation of oxyhemoglobin (HbO2) to methemoglobin (Met Hb) and of reduced glutathione (GSH)” value with erythrocytes is on record as “cause oxidation”.
Turning to `COC1(O)C=C(NC(C)CCCN)c2ncccc2C1O` (stereo not drawn) [formula (4), 5,6-dihydroxy-6-methoxy-8-(4-amino-1-methylbutylamino) quinoline], the blood schizontocidal activity result in the series on rodent malaria [3] was “highly active”. The gametocytocidal activity entry in the series on rodent malaria [4] is given as “only a slight gametocytocidal activity”.
On to `COc1cc(N)c2ncccc2c1` [formula (10), 6-methoxy-8-aminoquinoline], for which the blood schizontocidal activity result in the series with rodent malaria [3] is on record as “no significant activity”. In addition, in the series with rodent malaria [5], the “tissue schizontoidal effect relative to primaquine” value is “two to three times more active than primaquine”. Moreover, the direct sporontocidal activity result in the series with rodent malaria [6] was “directly sporontocidal”.
`Nc1cc(O)c(O)c2cccnc12` [formula (11), 5,6-dihydroxy-8-aminoquinoline]: the blood schizontocidal activity entry with rodent malaria [3] was “no significant activity”. In addition, the “tissue schizontoidal effect relative to primaquine” value in the series on rodent malaria [5] is “two to three times more active than primaquine”. The direct sporontocidal activity result in the series with rodent malaria [6] was “directly sporontocidal”. Also, the “oxidation of oxyhemoglobin (HbO2) to methemoglobin (Met Hb) and of reduced glutathione (GSH)” value in the series with erythrocytes is recorded as “cause oxidation”.
As for `COc1cc(NC(C)CCC(=O)O)c2ncccc2c1` (stereo not drawn) [formula (12), 8-(3-carboxy-1-methylpropylamino)-6-methoxy quinoline], the gametocytocidal activity result with rodent malaria [4] is “inactive”. Further, in the series on erythrocytes (in vitro), the “methemoglobin formation in vitro” value is “does not cause methemoglobin formation”.
With Desmethyl primaquine [formula (5)], the blood schizontocidal activity entry in the series on rodent malaria [3] is on record as “little”. For the same compound, in the series with rodent malaria [4], the gametocytocidal activity entry was “inactive”.
